Numbered stars: 1 amine (or outer) side, 2 acyl side, 3 side chain; on linkers, the order of the positions; unused ones are H or OH. Bridge positions count the residues as written; N and C are the ends. Square brackets hold non-standard residues; d marks the D form. Ends that are not written are not given here. Peptide text beside a SMILES is read from it. ξ: configuration not given here. ξαMeNle(6-ylidene) = CC(CCCC=[*:3])(N[*:1])C(=O)[*:2]; X1 = CC(CCCCCCC=[*:3])(N[*:1])C(=O)[*:2]; Suc = O=C(CCC(=O)[*:2])[*:1]
How the values were obtained:
[1] = target: MCF-7, epithelial (breast cancer); experiment: Viability assay (MTT, Alamar Blue, hexosaminidase), 72 h; type: cell-based
Method: MCF-7, epithelial (breast cancer), ECACC: 86012803
(§1) Cell lines A549, MCF-7 and RAMOS were cultured in incubator under CO2 (6%) at 37° C. in DMEM high glucose (Dulbecco's Modified Eagle Solution, Gibco-BRL 31966-21) medium with 10% fetal bovine serum inactivated (FBS) (Gibco-BRL 10106-169). Cell lines HL-60 and MM.1S were cultured in incubator at 37° C. in RPMI-1640 (Sigma R8758) medium with 10% of fetal bovine serum inactivated (FBS) and 2 mM glutamine (Sigma G7513). Cell lines BJ were cultured in incubator under CO2 (6%) at 37° C. in Eagle's Minimum Essential Medium (Sigma, M-2279) with 10% fetal bovine serum inactivated (FBS) (Gibco-BRL 10106-169).
(§2) During the amplification step and the assays adherent cells were rinsed with DPBS (Dulbecco's Phosphate Buffered Saline, Sigma D1283) three times and afterward treated for 5 minutes with trypsin ([…]) (Gibco-BRL, 15400054) in solution of DPBS at 37° C., and, once detached, transferred in the culturing medium. No-adherent cells were centrifuged and transferred in the culturing medium. Cells were counted in a Neubauer chamber after labelling with Tripan-Blue.
(§3) A549, MCF-7 and JB cells were seeded at a density of 5000 cells/well and HL-60, MM.1S and Ramos at 10000 cells/well in 100 μl of medium in 96 well plates. After 24 h, the compounds to be tested were added to calculate the dose/response curve at the starting concentration of 100 μM with serial dilutions (1:1). Controls are the untreated cells. Each experiment was performed in triplicate.
(§4) Cells were incubated during 72 h in incubator under CO2 atmosphere at 37° C. Cell viability was measured by means of MTT (3-(4,5-dimethylthiazol-2-yl)-2.5-diphenyltetrazolium bromide) assay, Alamar Blue® (Biosource DAL1100) and Hexosaminidase activity test, consecutively, following manufacturer instructions.
(§5) MTT: 1. Stock solution of MTT (475989 Calbiochem) was 5 mg/ml in PBS 1×. As negative control (experiment noise) 3 wells were treated with 20 μl/well of a solution of SDS 10% in H2O. The same control was used for Alamar Blue/Hexosaminidase. 10 μl/well of MTT solution were added and the plate was incubated for 3-4 hr. The medium was discarded and 100 μl of extracting buffer (PBS 1×, 15% SDS, 50% […] N,N-Dimethylformamide, pH 4.7) were added to each well. Plates were incubated for 16 h at room temperature under orbital shaking. Absorbance at 570 nm was finally measured.
(§6) Alamar Blue: 10 μl Alamar Blue solution was added to each well and the plates were incubated for […] in the incubator. Fluorescence ratio at 535/590 (excitation/emission) was measured in Cytofluor (Millipore) fluorimeter. Blank control was determined by lysis of untreated cells with con 2% of Triton X100, right before adding Alamar Blue solution.
(§7) Hexosaminidase activity test: after Alamar Blue lecture, medium was discarded and plates were rinsed once with PBS. 60 μl hexosaminidase substrate (p-nitrophenol-N-acetyl-beta-D-glucosamide 7.5 mM [Sigma N-9376], sodium citrate 0.1 M, pH 5.0, 0.25% Triton X-100) was added to each well and the plates were incubated at 37° C. for 2-5 h, according to the cell type (hexosaminidase activity changes according to the cell type). […] Blank control was the same as described before.
(§8) Data analysis was performed calculating the percentage of cell viability normalized vs. the values of negative control, which was considered equal to 100%. The dose/response curve was fitted through the sigmoidal equation dose-response (variable slope) and the EC50 values were calculated as follow: Y=Bottom+(Top−Bottom)/(1+10^{[(Log EC50−X)*HillSlope]},

several tumor cell lines = experiment: Anticancer activity in viability assay, stated in words; type: cell-based
Method: as §3, §4, §8

[2] = target: MM.1S, B Lymphoblast (multiple myeloma); experiment: Viability assay (MTT, Alamar Blue, hexosaminidase), 72 h; type: cell-based
Method: MM.1S, B Lymphoblast (multiple myeloma), ATCC: CRL-2974
as §1, §2, §3, §4, §5, §6, §7, §8

[3] = target: HL-60, promyeloblast (acute myelocytic leukemia, AML); experiment: as above; type: cell-based
Method: HL-60, promyeloblast (acute myelocytic leukemia, AML), ECACC: 98070106
as §1, §2, §3, §4, §5, §6, §7, §8

[4] = target: RAMOS, B lymphocyte (Burkitt's Lymphoma); experiment: as above; type: cell-based
Method: RAMOS, B lymphocyte (Burkitt's Lymphoma), ATCC: CRL-1596
as §1, §2, §3, §4, §5, §6, §7, §8

[5] = target: A549, epithelial (lung cancer); experiment: as above; type: cell-based
Method: A549, epithelial (lung cancer), ATCC:CCL-185
as §1, §2, §3, §4, §5, §6, §7, §8

[6] = Stability test in human plasma, 37 °C, UPLC-MS/MS; type: in vitro ADME
Method: Reagents: ACN LC-MS (Scharlab AC03712500); MeOH LC-MS (Scharlab ME03262500); IPA LC-MS (Scharlab AL03262500); HCOOH (Carlo Erba 405792); DPBS (Lonza BE17-512F); human plasma with EDTAK2 as anticoagulant were provided by Centre d'Investigació de Medicaments located at the Hospital de la Santa Creu i Sant Pau, C/. Sant Antoni Maria Claret 167, Pavelló Sant Frederic, 08025 Barcelona. Plasma was extracted from a healthy patient on 1 Feb. 2015. It was kept at −20° C. until the experiment day.
A calibration curve of eight non-zero concentration levels (from P1 to P8) was prepared in a concentration interval from 5 to 100 μM for S09. One blank sample of DPBS was also included. All calibration samples were analysed in duplicate. Calibration standard samples were prepared by addition of 30 μL of each calibration solution (from P1 to P8 and blank) to 270 μL of human plasma. Samples for incubation were prepared adding 15 μL of 1 mM solution of S09 to 135 μL of human plasma (final concentration 100 μM). 15 samples were prepared. Samples were incubated at 37° C. for 0, 0.5, 2, 6 and 24 h (three replicates were prepared for each incubation time).
An aliquot of 125 μL human plasma sample (blank, calibration standards and incubation samples) were processed using Sirocco™ Protein Precipitation plates (Waters). 375 μL of ACN were added to each well of the Sirocco plate. Then the samples were filtered applying vacuum (8-10 mm Hg) for about 5 minutes. The filtrates were evaporated under a steady stream of nitrogen (40° C.) and reconstituted with 150 μL of MeOH:H2O 0.1% HCOOH for analysis. Samples were analyzed by UPLC(ACQUITY Ultra Performance LC-MS/MS(API 3000).
UPLC conditions (X-Bridge C18 column; Pump A: H2O with 0.1% formic acid; Pump B Acetonitrile with 0.1% formic acid) using a linear gradient 5%-95% of B in 8 minutes (R. T.=5.95). The mean (out of 3 experiments) of the normalized percentage integrated area corresponding to the peak of S09 at different time are reported in table 11 below.

Compound: CC(C)C[C@H](NC(=O)[C@H](C)NC(=O)[C@H](C)NC(=O)[C@H](Cc1ccccc1)NC(=O)[C@H](CO)NC(=O)[C@H](CCCNC(=N)N)NC(=O)[C@H](CCCCN)NC(=O)[C@H](CC(C)C)NC(=O)[C@H](CCC(=O)O)NC(=O)[C@H](CC(N)=O)NC(=O)[C@H](CCCNC(=N)N)NC(=O)[C@H](CCCNC(=N)N)NC(=O)[C@H](CCC(N)=O)NC(=O)[C@H](CCCNC(=N)N)NC(=O)CCC(=O)O)C(=O)N[C@@H](CCCNC(=N)N)C(=O)N[C@@H](CC(=O)O)C(=O)N[C@@H](CCC(N)=O)C(=O)O [IDP-L12] (Suc-RQRRNELKRSFAALRDQ-OH; N-terminus and C-terminus assumed)
- EC50 [1]: > 100 µM
- anticancer activity (active / inactive) (several tumor cell lines): inactive
- EC50 [2]: > 100 µM
- EC50 [3]: > 100 µM
- EC50 [4]: > 100 µM

Compound: CC(C)C[C@H](NC(=O)[C@H](C)NC(=O)[C@H](C)NC(=O)[C@H](Cc1ccccc1)NC(=O)[C@H](C)NC(=O)[C@H](CCCNC(=N)N)NC(=O)[C@H](CCCCN)NC(=O)[C@H](CC(C)C)NC(=O)[C@H](CCC(=O)O)NC(=O)[C@H](CC(N)=O)NC(=O)[C@H](CCCNC(=N)N)NC(=O)[C@H](CCCNC(=N)N)NC(=O)[C@H](CCC(N)=O)NC(=O)[C@H](CCCNC(=N)N)NC(=O)CCC(=O)O)C(=O)N[C@@H](CCCNC(=N)N)C(=O)N[C@@H](CC(=O)O)C(=O)N[C@@H](CCC(N)=O)C(=O)O [IDP-L13, RQRRNELKRAFAALRDQ] (Suc-RQRRNELKRAFAALRDQ-OH; N-terminus and C-terminus assumed)
- EC50 [1]: > 100 µM
- anticancer activity (active / inactive) (several tumor cell lines): inactive
- EC50 [2]: > 100 µM
- EC50 [3]: > 100 µM
- EC50 [4]: > 100 µM

Compound: CC[C@H](C)[C@H](NC(=O)[C@H](Cc1ccc(O)cc1)NC(=O)[C@H](C)NC(=O)[C@H](CC(C)C)NC(=O)[C@H](C)NC(=O)[C@H](CCCCN)NC(=O)[C@H](CCCCN)NC(=O)[C@H](Cc1ccccc1)NC(=O)[C@@H](NC(=O)[C@@H](NC(=O)[C@@H](NC(=O)[C@H](CCCCN)NC(=O)[C@@H]1CCCN1)[C@@H](C)CC)C(C)C)[C@@H](C)CC)C(=O)O [IDP-L14α, Pro-Lys-Val-Val-Ile-Leu-Lys-Lys-Ala-Thr-Ala-Tyr-Ile]
- EC50 [1]: > 100 µM
- anticancer activity (active / inactive) (several tumor cell lines): inactive
- EC50 [2]: > 100 µM
- EC50 [5]: > 100 µM
- EC50 [3]: > 100 µM
- EC50 [4]: > 100 µM

Compound: CC[C@H](C)[C@H](NC(=O)[C@H](Cc1ccc(O)cc1)NC(=O)[C@H](C)NC(=O)C1(C)CCCC=CCCCCCCC(C)(NC(=O)[C@H](CCCCN)NC(=O)[C@@H]2CCCN2C(=O)[C@H](C)N)C(=O)N[C@@H](C(C)C)C(=O)N[C@@H]([C@@H](C)CC)C(=O)N[C@@H](CC(C)C)C(=O)N[C@@H](CCCCN)C(=O)N[C@@H](CCCCN)C(=O)N[C@@H](C)C(=O)N1)C(=O)N[C@@H](CC(C)C)C(=O)N[C@@H](CO)C(=O)O (some centres unmarked) [IDP-S09, APKXVILKKAXAYILS-OH] (H-APK[X1]VILKKA[ξαMeNle(6-ylidene)]AYILS-OH; staple 4-11; N-terminus assumed)
- % Remaining of active metabolyte (mean) ([6]; 100 μM, incubation time 0 h): 0%
- % Remaining of starting compound (mean) ([6]; 100 μM, incubation time 0 h): 100%
- % Remaining of active metabolyte (mean) ([6]; 100 μM, incubation time 2 h): 0%
- % Remaining of active metabolyte (mean) ([6]; 100 μM, incubation time 6 h): 0%
- % Remaining of active metabolyte (mean) ([6]; 100 μM, incubation time 24 h): 0%
- remaining at 2 h, 100 μM ([6]; human plasma (EDTA-K2), incubation time 2 h, read-out: % Remaining of starting compound (mean)): 106 ± 4.9%
- remaining at 6 h, 100 μM ([6]; human plasma (EDTA-K2), incubation time 6 h, read-out: % Remaining of starting compound (mean)): 90 ± 16%
- remaining at 24 h, 100 μM ([6]; human plasma (EDTA-K2), incubation time 24 h, read-out: % Remaining of starting compound (mean)): 97 ± 10%

Compound: NELKRSFFALRDQ-OH [IDP-L10, NELKRSFFALRDQ]
- EC50 [1]: > 100 µM
- anticancer activity (active / inactive) (several tumor cell lines): inactive
- EC50 [2]: > 100 µM
- EC50 [3]: > 100 µM
- EC50 [4]: > 100 µM
